Tests used:
Type in all cases: functional, Homo sapiens
Design in all cases: dose or concentration left out as unconfirmed
Colon cancer organoid [1] = test: Identification of compartment-specific drug sensitivities in O06 CRC organoid-stroma F06 CAF co-cultures. Organoid is transduced with Lucferase2-P2A-EGFP lentivirus, fibroblast with Renilla-dsRed lentivirus. Dual-Glo Luciferase assay is used to report viability data.
Colon cancer organoid [2] = test: Identification of compartment-specific drug sensitivities in O14 CRC organoid-stroma F14 CAF co-cultures. Organoid is transduced with Lucferase2-P2A-EGFP lentivirus, fibroblast with Renilla-dsRed lentivirus. Dual-Glo Luciferase assay is used to report viability data.
Colon cancer organoid [3] = test: Identification of compartment-specific drug sensitivities in O20 CRC organoid-stroma F20 CAF co-cultures. Organoid is transduced with Lucferase2-P2A-EGFP lentivirus, fibroblast with Renilla-dsRed lentivirus. Dual-Glo Luciferase assay is used to report viability data.
[4] = Transduced with Lucferase2-P2A-EGFP lentivirus
[5] = Transduced with Renilla-dsRed lentivirus

In the case of `Cc1cn(-c2cc(NC(=O)c3ccc4c(c3)CN(c3cncnc3)C[C@@H]4C)cc(C(F)(F)F)c2)cn1`, the “Cell Viability” value (Colon cancer organoid [1]; [4]) is reported as 82.9908%, the “Cell Viability” value (Colon cancer organoid [1]; [5]) is reported as 122.253% and the “Cell Viability” value (Colon cancer organoid [2]; [4]) is reported as 141.09%. The “Cell Viability” value (Colon cancer organoid [2]; [5]) was 97.6954%, the “Cell Viability” value (Colon cancer organoid [3]; [4]) was 88.3808% and the “Cell Viability” value (Colon cancer organoid [3]; [5]) was 107.854%.

For `Cc1noc(C)c1-c1cnc2c(-c3ccc(C(=O)O)cc3)cn([C@@H](C)c3ccccn3)c2c1` [PLX-51107], the “Cell Viability” value (Colon cancer organoid [1]; [4]) was 26.8486%, the “Cell Viability” value (Colon cancer organoid [1]; [5]) was 312.702% and the “Cell Viability” value (Colon cancer organoid [2]; [4]) was 39.3332%. For the same molecule, the “Cell Viability” value (Colon cancer organoid [2]; [5]) was 170.275%, the “Cell Viability” value (Colon cancer organoid [3]; [4]) was 17.7697% and the “Cell Viability” value (Colon cancer organoid [3]; [5]) was 177.825%.

In the case of `CC(=O)c1c(NS(C)(=O)=O)c2cc(-c3ccc(Cl)cc3)c(-c3ccc(Cl)cc3Cl)nc2n(C)c1=O` [MRL-CB1-NC], the “Cell Viability” value (Colon cancer organoid [1]; [4]) is reported as 117.339%, the “Cell Viability” value (Colon cancer organoid [1]; [5]) is reported as 76.9916% and the “Cell Viability” value (Colon cancer organoid [2]; [4]) is reported as 112.083%. The “Cell Viability” value (Colon cancer organoid [2]; [5]) was 107.66%, the “Cell Viability” value (Colon cancer organoid [3]; [4]) was 159.821% and the “Cell Viability” value (Colon cancer organoid [3]; [5]) was 122.581%.

`CN(C(=O)c1ccccc1)c1cc(N(C)c2ccc3c(c2)CCc2ccc(C(=O)NCCN4CCOCC4)cc2C3=O)ccc1F` [FM-743] was tested, and the “Cell Viability” value (Colon cancer organoid [1]; [4]) was 67.0526%, the “Cell Viability” value (Colon cancer organoid [1]; [5]) was 69.6878% and the “Cell Viability” value (Colon cancer organoid [2]; [4]) was 122.056%. For the same molecule, the “Cell Viability” value (Colon cancer organoid [2]; [5]) was 99.7372%, the “Cell Viability” value (Colon cancer organoid [3]; [4]) was 87.6379% and the “Cell Viability” value (Colon cancer organoid [3]; [5]) was 153.202%.

For `CN(C)C(=O)c1cc2cnc(Nc3ccc(N4CCNCC4)cn3)nc2n1C1CCCC1` [RIBOCICLIB], the “Cell Viability” value (Colon cancer organoid [1]; [4]) was 54.2961%, the “Cell Viability” value (Colon cancer organoid [1]; [5]) was 126.231% and the “Cell Viability” value (Colon cancer organoid [2]; [4]) was 43.0147%. The “Cell Viability” value (Colon cancer organoid [2]; [5]) was 103.263%, the “Cell Viability” value (Colon cancer organoid [3]; [4]) was 36.7036% and the “Cell Viability” value (Colon cancer organoid [3]; [5]) was 144.514%.

In the case of `Cn1cc(-c2ccc3occ(-c4cccc(-c5ccncc5)c4)c3n2)cn1`, the “Cell Viability” value (Colon cancer organoid [1]; [4]) is reported as 70.7683%, the “Cell Viability” value (Colon cancer organoid [1]; [5]) is reported as 132.305% and the “Cell Viability” value (Colon cancer organoid [2]; [4]) is reported as 87.0505%. The “Cell Viability” value (Colon cancer organoid [2]; [5]) was 83.2978%, the “Cell Viability” value (Colon cancer organoid [3]; [4]) was 65.7439% and the “Cell Viability” value (Colon cancer organoid [3]; [5]) was 132.411%.

`O=C(NNS(=O)(=O)c1ccccc1F)c1cc(F)cc(-c2ccccn2)c1` [WM-1119] was tested, and the “Cell Viability” value (Colon cancer organoid [1]; [4]) was 97.0333%, the “Cell Viability” value (Colon cancer organoid [1]; [5]) was 108.11% and the “Cell Viability” value (Colon cancer organoid [2]; [4]) was 29.5498%. The “Cell Viability” value (Colon cancer organoid [2]; [5]) was 87.8305%, the “Cell Viability” value (Colon cancer organoid [3]; [4]) was 69.0433% and the “Cell Viability” value (Colon cancer organoid [3]; [5]) was 152.012%.

In the case of `CCc1ccccc1C(=O)Nc1n[nH]c2c(C)c(F)c(C3C(C#N)=C(C)N(C)C(C)=C3C#N)cc12` [BAY-3827], the “Cell Viability” value (Colon cancer organoid [1]; [4]) is reported as 43.7855%, the “Cell Viability” value (Colon cancer organoid [1]; [5]) is reported as 108.902% and the “Cell Viability” value (Colon cancer organoid [2]; [4]) is reported as 97.9341%. For the same molecule, the “Cell Viability” value (Colon cancer organoid [2]; [5]) was 94.3175%, the “Cell Viability” value (Colon cancer organoid [3]; [4]) was 74.4041% and the “Cell Viability” value (Colon cancer organoid [3]; [5]) was 157.673%.

`CC(C)(C#Cc1ccc(NC(=O)COc2ccccc2C(=O)c2ccccc2)c(Cl)c1)C(=O)O` [BI 2439] was tested, and the “Cell Viability” value (Colon cancer organoid [1]; [4]) was 97.1512%, the “Cell Viability” value (Colon cancer organoid [1]; [5]) was 131.731% and the “Cell Viability” value (Colon cancer organoid [2]; [4]) was 66.7268%. The “Cell Viability” value (Colon cancer organoid [2]; [5]) was 62.0838%, the “Cell Viability” value (Colon cancer organoid [3]; [4]) was 147.968% and the “Cell Viability” value (Colon cancer organoid [3]; [5]) was 100.148%.

For `CCCCNc1ncc(-c2ccc(CN3CCOCC3)cn2)c(N[C@H]2CC[C@H](O)CC2)n1`, the “Cell Viability” value (Colon cancer organoid [1]; [4]) was 22.8495%, the “Cell Viability” value (Colon cancer organoid [1]; [5]) was 123.664% and the “Cell Viability” value (Colon cancer organoid [2]; [4]) was 12.9881%. For the same molecule, the “Cell Viability” value (Colon cancer organoid [2]; [5]) was 77.7799%, the “Cell Viability” value (Colon cancer organoid [3]; [4]) was 8.867% and the “Cell Viability” value (Colon cancer organoid [3]; [5]) was 223.767%.

In the case of `Cn1cncc1[C@@](O)(COc1ccc(C#N)cc1-c1ccc(OC(F)(F)F)cc1)c1ccc(C#N)cc1` [A-108], the “Cell Viability” value (Colon cancer organoid [1]; [4]) is reported as 61.6996%, the “Cell Viability” value (Colon cancer organoid [1]; [5]) is reported as 139.827% and the “Cell Viability” value (Colon cancer organoid [2]; [4]) is reported as 94.7328%. The “Cell Viability” value (Colon cancer organoid [2]; [5]) was 120.862%, the “Cell Viability” value (Colon cancer organoid [3]; [4]) was 89.1467% and the “Cell Viability” value (Colon cancer organoid [3]; [5]) was 110.638%.

For `C[C@H]1CC(=O)Nc2cc(C(=O)NCCC3CC3)ccc2N1C(=O)N1CC2CC2C1` (stereo partly drawn), the “Cell Viability” value (Colon cancer organoid [1]; [4]) was 115.835%, the “Cell Viability” value (Colon cancer organoid [1]; [5]) was 132.849% and the “Cell Viability” value (Colon cancer organoid [2]; [4]) was 144.576%. The “Cell Viability” value (Colon cancer organoid [2]; [5]) was 93.1136%, the “Cell Viability” value (Colon cancer organoid [3]; [4]) was 106.68% and the “Cell Viability” value (Colon cancer organoid [3]; [5]) was 112.87%.

`Cc1cc(NC(=O)c2cccc(S(F)(F)(F)(F)F)c2)cc(-n2ccn3nc(-c4cccnc4)cc23)c1` [BAY-309] was tested, and the “Cell Viability” value (Colon cancer organoid [1]; [4]) was 58.4282%, the “Cell Viability” value (Colon cancer organoid [1]; [5]) was 47.7134% and the “Cell Viability” value (Colon cancer organoid [2]; [4]) was 149.605%. For the same molecule, the “Cell Viability” value (Colon cancer organoid [2]; [5]) was 88.4633%, the “Cell Viability” value (Colon cancer organoid [3]; [4]) was 122.672% and the “Cell Viability” value (Colon cancer organoid [3]; [5]) was 127.793%.

Reference: ChEMBL document CHEMBL5608141, “Identification of compartment-specific drug sensitivities in CRC organoid-stroma co-cultures” (2024)
